Here are results for three compounds from patent publication US20250360118A1, “TREATMENT OF FIBROTIC DISORDERS WITH METABOTROPIC GLUTAMATE RECEPTOR 5 ANTAGONISTS OR/AND CANNABINOID RECEPTOR 1 ANTAGONISTS” (THE UNITED STATES OF AMERICA,AS REPRESENTED BY THE …, priority 2022, published 2025).

The structures appear in SMILES notation. Entries after “also recorded” stand apart in the source; their conditions may differ.

Holding throughout (assay type): in vivo, mice
Experiment [1] concerns bleomycin-induced PF mouse model. Kind of experiment: Survival in bleomycin-induced pulmonary fibrosis mouse model. The method, then:
(§1) The compounds were administered by oral gavage once daily as indicated. The vehicle was a 1:1:18 ratio of DMSO:Tween® 80:saline. Oral formulations were applied at 0.3 and 3 mg/mL concentrations to achieve doses of 3 and 30 mg/kg, respectively.
(§2) All animal procedures were conducted in accordance with the rules and regulations of the Institutional Animal Care and Use Committee of the National Institutes of Alcohol Abuse and Alcoholism (NIAAA), under the protocols of LPS-GK1. Thirteen-week-old male C57BL/6J mice were obtained from The Jackson Laboratory (Bar Harbor, Maine, USA). Grm5^−/− (mGluR5 KO) mice (JAX 003121) were purchased from The Jackson Laboratory. […] (CB1R KO) mice were generated as described in Zimmer et al., Proc. Natl. Acad. Sci. USA, 96:5780-5785 (1999). Cnr1^−/− and Grm5^−/− mice were on a C57BL/6J genetic background. Both Grm5^−/− and Cnr1^−/− mice colonies were maintained with heterozygous breeding. Mice were housed individually under a 12-hour light/dark cycle and fed a standard diet, ad libitum (Teklad NIH-31; Envigo, Huntingdon, UK).
A bleomycin-induced pulmonary fibrosis model by delivery of bleomycin via oropharyngeal aspiration was generated as described in Park et al., Am. J. Respir. Cell Mol. Biol., 62(2):178-190 (2020). Briefly, bleomycin was delivered to mice anesthetized with ketamine/xylazine through the oropharynx at 1 U/kg dose using a sterile 100 μL pipette during inspiration at a volume of 100 μL/50 g body weight. Sterile saline was used as vehicle and applied to the control groups. The animals were then allowed to recover from the anesthesia.
Survival curves were plotted using GraphPad Prism 9 software. Survival was analyzed by using Log-rank (Mantel-Cox) test for assessing the statistical difference between animal groups.

The test system is the same in experiment [2]. Description: Lung function measurements (FlexiVent) in bleomycin-induced PF mouse model. As for the experimental part: as §1
as §2, with “Mice were housed individually under a 12-hour light/dark cycle and fed a standard diet, ad libitum (Teklad NIH-31; Envigo, Huntingdon, UK).” left out
Respiratory system mechanics measurements were performed using the FlexiVent FX system (SCIREQ Inc., Montreal, Canada), which is equipped with an FX1 module and negative pressure forced expiration (NPFE) extension for mice. […] Pressure-volume (PV) curve, airway resistance, tissue damping (G), tissue elastance (H), forced expiratory volume per 0.1 seconds (FEV 0.1), forced vital capacity (FVC), inspiratory capacity (IC), and inhaled air amount (A) parameters were measured. […]

The test system is the same in experiment [3]. Kind of experiment: Body weight in bleomycin-induced PF mouse model. The note with it: basimglurant 3 mg/kg oral, days 8 to 28 after single bleomycin administration, vs vehicle. The method, then:
as §1, §2
A bleomycin-induced pulmonary fibrosis model by delivery of bleomycin via oropharyngeal aspiration was generated as described in Park et al., Am. J. Respir. Cell Mol. Biol., 62(2):178-190 (2020). […]

Experiment [4] has the same test system. Description: Lung hydroxyproline (fibrosis marker) in bleomycin-induced PF mouse model. To be noted: fenobam 30 mg/kg daily oral for 14 days vs vehicle, bleomycin 1 U/kg. The method, then:
as §1
as §2, with “UK). […]” for “UK).”
The degree of lung fibrosis was quantified biochemically by measuring the hydroxyproline content of lung extracts using liquid chromatography/tandem mass spectrometry (LC-MS/MS) as described in Park et al., Am. […]

The mark [5] stands for this setting: basimglurant 3 mg/kg oral, days 8 to 28 after single bleomycin administration, vs vehicle.

For the compound `Cc1nc(C#Cc2ccnc(Cl)c2)c(C)n1-c1ccc(OC(F)(F)F)cc1` [CTEP, 2-chloro-4-((2,5-dimethyl-1-(4-(trifluoromethoxy)phenyl)-1H-imidazol-4-yl)ethynyl)pyridine], the survival rate in experiment [1] (CTEP 3 mg/kg daily oral for 28 days after single oropharyngeal bleomycin 1 U/kg, vehicle-treated mice 50%) amounted to 100%. Also, the “survival (in words)” value in experiment [1] (CTEP 3 mg/kg daily oral gavage vs vehicle, bleomycin 1 U/kg) is reported as “significantly improved survival; also recorded: prevented mortality”.

In the case of `Cc1nc(C#Cc2ccnc(Cl)c2)c(C)n1-c1ccc(F)cc1` [basimglurant], the pulmonary tissue stiffness result in experiment [2] (setting [5]) is on record as “reduced pulmonary tissue stiffness”. Moreover, the “survival rate (in words)” value in experiment [1] (setting [5]) is given as “increased survival rate”. The body weight loss result in experiment [3] is “reduced body weight loss”.

Take `CN1CC(=O)NC1=NC(=O)Nc1cccc(Cl)c1` [fenobam]: the “decline in pulmonary function parameter: forced expiratory volume (FEV) at 0.1 sec. (air flow)” value in experiment [2] (fenobam 30 mg/kg daily oral for 14 days vs vehicle, bleomycin 1 U/kg) is listed as “significantly attenuated”. Further, the “fibrosis as measured by hydroxyproline level in lungs” value in experiment [4] is on record as “significantly attenuated fibrosis; also recorded: attenuated pulmonary fibrosis”.
